We go through three substances from patent US7700553B2, “Selective inhibition of NF-κB activation by peptides designed to disrupt nemo oligomerization” (priority 2003, dated 2010).

Assay [1] concerns LPS-induced NF-κB activation in 70Z/3-C3 cells. Nature of the assay: NF-κB inhibition assay, first procedure (NF-κB dependent β-galactosidase reporter, LPS stimulation). It is filed as cell-based, murine. Particulars: 20 μM peptide; for effect on LPS-induced NF-κB activation (in words): 2 h, then 5 h LPS.
Protocol: The resulting cell line, 70Z3-C3, was incubated for 2 hours in the absence or in the presence of 20 μM of antennapedia peptide (Ant), or BODIPY-labeled antennapedia peptide (BODIPY-Ant), or BODIPY-labeled antennapedia peptide coupled to CC2 (BODIPY-Ant-CC2) or LZ (BODIPY-Ant-LZ) peptides, After peptide internalization, cells were treated for 5 hours with LPS (3 μg/ml, (+) in left panel) or untreated (right panel and (−) in left panel) and the NF-κB activity was measured by β-galactosidase assay. […] Cells were treated as in (A) but with different concentration of peptide as indicated. The potential of each peptide to inhibit LPS-induced NF-κB activation was measured by determining the IC50 value that correspond to 50% inhibition of LPS-induced NF-κB activation as compared to the control (no peptide) (C). […] Control (no peptide) or CC2, or LZ peptides, with (BODIPY-ANT-CC2, BODIPY-ANT-LZ) or without the antennapedia sequence at the N-terminus (CC2, LZ) were incubated for 2 hours with 70Z3-C3 cells followed with (+) or without (−) the LPS-treatment for 3 hours. NF-κB activity was then measured by β-galactosidase assay.
In a first procedure 2.2×10^5 70Z/3-C3 cells in 220 μl of RPMI 1640 supplemented with 10% fetal calf serum (FCS) and 50 μM β-mercaptoethanol were placed in a 96-well plate and incubated with various concentrations of peptide (0 to 20 μM) at 37° C. in 5% CO2 incubator. After two hours an equal portion (100 μl) of each cell sample transferred in two wells containing each 10^5 cells. One aliquot of cells was then treated for 5 hours with lipopolysaccharides from Salmonella abortus (Sigma) at 0.5 μg/ml final concentration, and the other one left-treated. After 5 hours, cells were centrifuged at 400×g for 5 min at room temperature and the cell pellets were washed three times with cold PBS (250 μl) by centrifugation. Cells were then lysed in the lysis buffer (25 mM tris-phosphate buffer at pH 7.8 containing 8 mM magnesium chloride, 1 mM dithioerythreitol, 1% Triton X-100, 15% glycerol and a protease inhibitor mixture (Roche)), and samples were centrifuged at 4° C. for 20 min to clarify the lysate. The supernatant was then kept on ice, and 30 μl was then assayed to measure the β-galactosidase activity with a plate luminometer (Berthold) using the galacton-star as chemiluminescent substrate (BD Biosciences Clontech, Bronstein et al., 1989). Background of reaction was measured by mixing for 1 hour 30 μl of lysis buffer with the reaction buffer (196 μl) and the galacton-star substrate (4 μl) provided by BD Biosciences.
In assay [2] the target is T1, CC2 peptide composing the minimal oligomerization domain of NEMO (Mus musculus, UniProt O88522).
T1 construct: SKGMQLEDLRQQLQQAEEA; made in house; host or cells: chemical solid-phase peptide synthesis (Fmoc/tBu), not expressed
T1 sequence (O88522 248-287): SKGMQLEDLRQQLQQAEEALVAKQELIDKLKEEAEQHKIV
The experiment in a line: Fluorescence anisotropy titration with CC2 peptide. It is filed as binding, murine. Particulars: in vitro, fluorescence polarization. Here is the method: FIG. 7: Association of Ant-CC2 and Ant-LZ Peptides to the CC2 Peptide (A) Direct titration of BODIPY-Ant-CC2 (1 μM) with CC2 by fluorescence anitropy. The concentration of CC2 was determined by amino acid analysis. Anisotropy values of BODIPY-Ant-CC2 in milliunits (mA) were plotted against an increasing concentration of the CC2 peptide. […] The two dashed lines represent a stoichiometric titration and intersect at an CC2 concentration of […]. Given the 1 μM concentration of the BODIPY-Ant-CC2, this gives a complex stoechiometrie of 0.8. (B) Direct titration of BODIPY-Ant-LZ (0.1 μM with CC2 by fluorescence anitropy. The anisotropy values of the BODIPY-Ant-LZ alone (white bar) or in the presence of the CC2 peptide (30 μM, grey bar; 100 μM, black bar) are given in milliunits (mA).
Anisotropy measurements were performed with a PTI Quantamaster fluorometer equipped with polarizers for the excitation and emission beams. This instrument uses a PMT in the L-configuration. […] Steady-state fluorescence anisotropy was expressed as millianisotropy (mA) and was calculated according to the equations: (1) A=(IVV−GIVH)/(IVV+2GIVH); (2) G=IHV/IHH; where A is anisotropy, G is a correction factor for wavelength-dependent distortion and I is the fluorescence intensity component (subscript referring to the vertical and horizontal positioning at the excitation and emission polarizers, respectively). […]

Assay [3] has as its system LPS-induced NF-κB activation in 70Z/3-C3 cells. The experiment in a line: NF-κB inhibition assay, second more stringent procedure (peptide washed out, 24 h growth before LPS). It counts as cell-based, murine. Particulars: 10 μM peptide. The text has this: FIG. 4: Specific Inhibition of NF-κB Activation in Response to LPS Depends on a Few Mutations in the Hydrophobic Core of CC2 and LZ Coiled-Coils Left panels show a helical wheel diagram of CC2 (A) and LZ (B) peptides. The view is from the top the molecule. The (a) through (g) positions, which are an essential feature of coiled coil sequence (Vinson, 2002, Mol. Cell. Biol.) represent sequential positions in each peptide sequence. The first (a) and fourth (d) positions that are generally occupied by hydrophobic amino acids constitute the hydrophobic core for parallel as well as antiparallel-coiled coils. […] NF-κB activity was measured using the β-galactosidase assay. […]
FIG. 5: Inhibition of NF-κB Activation by the LZ Peptide Occurs Through the Formation of Specific Coiled-Coil Strands. […] NF-κB activity was measured using the β-galactosidase assay. […]

Ends that are not written are not given here. BODIPY = not defined here

With “B-CRQIKIWFQNRRMKWKKLKAQADIYKADFQAERHAREKLVEKKEYLQEQLEQLQREFNKL (C(BODIPY)RQIKIWFQNRRMKWKKLKAQADIYKADFQAERHAREKLVEKKEYLQEQLEQLQREFNKL-NH2; not fully specified (N-terminus); reading uncertain) [BODIPY-Ant-LZ (WT)]”, the “effect on LPS-induced NF-κB activation (in words)” value in assay [1] is reported as “decreased significantly the NF-κB activation”; in assay [1] (listed as “Leucine zipper” peptide), “completely eliminates cell response”. The “basal NF-κB activity in the absence of LPS (in words)” value in assay [1] (no LPS) is given as “without affecting the intrinsic basal NF-κB activity”. Further, in assay [2], the “binding to the CC2 peptide (in words)” value is recorded as “binds in vitro to the CC2 peptide”.
On to “B-CRQIKIWFQNRRMKWKKLKAQADIYKADFQAERHAREKLVEKKEYSQEQLEQSQREFNKL (C(BODIPY)RQIKIWFQNRRMKWKKLKAQADIYKADFQAERHAREKLVEKKEYSQEQLEQSQREFNKL-NH2; not fully specified (N-terminus); printed as B-CRQIKIWFQNRRMKWKKLKAQADIYKADFQAERHAREKLVEKKEYSQEQLEQSQREFNKL; reading uncertain) [BODIPY-Ant-LZ (Mu)]”, for which, in assay [3], the “inhibition of LPS-induced NF-κB activation compared to the control” value is listed as 15%.
On to “B-CRQIKIWFQNRRMKWKKSKGMQLEDLRQQGQQAEEAGVAKQELGDKLKEEAEQHKIV (C(BODIPY)RQIKIWFQNRRMKWKKSKGMQLEDLRQQGQQAEEAGVAKQELGDKLKEEAEQHKIV-NH2; not fully specified (N-terminus); printed as B-CRQIKIWFQNRRMKWKKSKGMQLEDLRQQGQQAEEAGVAKQELGDKLKEEAEQHKIV; reading uncertain) [BODIPY-Ant-CC2 (Mu)]”, for which the “effect on LPS-induced NF-κB activation (in words)” value in assay [3] is “did not affect the NF-κB activation”.
